The numbers were not newly measured in US20250041228A1, “ORAL FORMULATION OF A PYRIDINONE DERIVATE AND USE THEREOF IN PROPHYLAXIS AND/OR TREATMENT OF INTESTINAL FIBROSIS” (Dr. Falk Pharma GmbH, priority 2021, published 2025), which cites them from elsewhere.

For the series, the target named is T1, transglutaminase 2 (Homo sapiens, UniProt P21980).
T1 sequence (P21980 1-687): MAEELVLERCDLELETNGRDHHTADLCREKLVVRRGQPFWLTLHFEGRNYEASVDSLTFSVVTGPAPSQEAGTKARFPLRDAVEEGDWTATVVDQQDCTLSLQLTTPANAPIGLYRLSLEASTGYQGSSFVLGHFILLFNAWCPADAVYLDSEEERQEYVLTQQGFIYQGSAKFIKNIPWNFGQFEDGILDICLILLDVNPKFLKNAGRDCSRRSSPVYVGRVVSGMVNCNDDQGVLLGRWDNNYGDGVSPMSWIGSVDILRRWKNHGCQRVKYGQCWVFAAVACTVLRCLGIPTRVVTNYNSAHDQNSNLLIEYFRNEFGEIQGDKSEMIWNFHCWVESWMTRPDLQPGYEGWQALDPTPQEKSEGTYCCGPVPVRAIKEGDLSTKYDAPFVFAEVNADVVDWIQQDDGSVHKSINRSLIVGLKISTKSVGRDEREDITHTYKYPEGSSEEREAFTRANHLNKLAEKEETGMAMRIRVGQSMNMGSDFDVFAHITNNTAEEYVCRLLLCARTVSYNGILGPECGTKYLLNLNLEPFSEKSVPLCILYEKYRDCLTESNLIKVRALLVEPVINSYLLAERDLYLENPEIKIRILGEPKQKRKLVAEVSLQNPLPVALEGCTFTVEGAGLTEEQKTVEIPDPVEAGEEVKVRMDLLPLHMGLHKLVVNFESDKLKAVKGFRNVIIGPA
To be noted: background statement, no data.

Structures are written as SMILES.

Consider `CCC(CC)CNC(=O)Cn1cccc(NC(=O)[C@H](CC/C=C/C(=O)OC)NC(=O)c2cncn2C)c1=O` [Compound 1, (S,E)-methyl-7-(1-(2-(2-ethylbutylamino)-2-oxoethyl)-2-oxo-1,2-dihydro-pyridin-3-ylamino)-6-(1-methyl-1H-imidazole-5-carboxamido)-7-oxohept-2-enoate], for which the “inhibitor against transglutaminase 2” value is reported as “effective inhibitor”.
